{
  "source": "patent USRE39485E1",
  "about": "(Aesgen, Inc., priority 1993, dated 2007)",
  "key": {"[1]": {"test_system": "patients experiencing mucositis of the oropharynx following a course of chemotherapy", "assay": "Oral glutamine swish and swallow trial in patients with chemotherapy induced oral mucositis", "assay_type": "in vivo, human", "design": "key to Maximum Grade of Mucositis: 0: no mucositis; 1: painful mucositis not necessitating a change in oral intake; 2A: painful mucositis restricting intake to soft foods; 2B: painful mucositis restricting oral intake to liquids; 3: mucositis preventing oral intake", "description": "Patients experiencing mucositis of the oropharynx following a course of chemotherapy were offered the opportunity to enter this study if no other clinical parameters precluded receiving the same chemotherapy doses during the next course of treatment. […] Other carriers, flavor enhancers, gums, and suspending agents known in the art may be employed. The suspension was stored in a refrigerator during use for a maximum of 1 month. […] The severity of mucositis was graded as: 0, no mucositis; 1, painful mucositis not necessitating a change in oral intake; 2A, painful mucositis restricting intake to soft foods; 2B, painful mucositis restricting oral intake to liquids; and 3, mucositis preventing oral intake (CALGB criteria). Maximum grade of mucositis and total number of days of mucositis were compared by the paired t-test. All patients gave written informed consent, and the trial was approved by the Institutional Review Board of the University of Minnesota. Ten adults, 5 men and 5 women, were entered in the study. […] One patient with AIDS and Kaposi's sarcoma was treated with doxorubicin by constant iv infusion over 5 days with bolus DTIC and vincristine. One patient with breast cancer was treated with doxorubicin, cyclophosphamide, and 5-FU, iv bolus."}, "[2]": {"details": "oral dose of 0.3 g/kg; cited from earlier work"}, "[3]": {"details": "0.57 g/kg/day in parenteral nutrition solutions for 5 days; cited from earlier work"}, "[4]": {"test_system": "adults undergoing allogeneic bone marrow transplantation for hematologic malignancies", "details": "cited from earlier work"}, "[5]": {"test_system": "rats treated with methotrexate", "details": "glutamine supplementation of an elemental diet; cited from earlier work"}, "[6]": {"test_system": "rats given abdominal radiotherapy", "details": "glutamine group vs glycine enriched group; cited from earlier work"}, "[7]": {"test_system": "animals given methotrexate", "details": "administered after methotrexate; cited from earlier work"}, "[8]": {"details": "parenteral glutamine supplementation vs none"}},
  "note": "Where “and” joins values, the source holds several entries; their conditions need not be identical. Equal entries are not always repeated.",
  "data": [
    {"molecule": "NC(=O)CC[C@H](N)C(=O)O", "note": "[glutamine, L-glutamine]", "values": [
      {"measurement": "Subjective Improvement of Mucositis", "setting": "[1]; Chemotherapy + Glutamine 2 gm/m^2 BID vs previous identical chemotherapy without glutamine, one line per patient (1-10)", "value": "Yes (9×) and No"},
      {"measurement": "Maximum Grade of Mucositis", "setting": "[1]; chemotherapy + glutamine, L-glutamine 2 g/m^2 swish and swallow twice daily, one line per patient (1-10), CALGB criteria", "value": "1 (7×) and 0 (3×)"},
      {"measurement": "toxicity of the glutamine", "setting": "[1]; oral glutamine 2 g/m^2 twice daily, ambulatory patients", "value": "absence of any detectable toxicity"},
      {"measurement": "patients in whom the maximum grade of mucositis remained the same (grade 1)", "setting": "[1]; with glutamine supplementation", "value": "2/10"},
      {"measurement": "patients in whom the total number of days of mucositis decreased", "setting": "[1]; with glutamine supplementation", "value": "9/10"},
      {"measurement": "median score of maximum grade of mucositis", "setting": "[1]; with glutamine supplementation (2 without), p=0.001", "value": 1},
      {"measurement": "total number of days of mucositis, mean (SEM)", "setting": "[1]; with glutamine supplementation (10.1±1.2 without), p=0.001", "value": "3.8 ± 1.0", "unit": "days"},
      {"measurement": "patients in whom the maximum grade of mucositis decreased", "setting": "[1]; with glutamine supplementation vs previous course, p=0.001", "value": "8/10"},
      {"measurement": "patients in whom glutamine allowed chemotherapy doses that would otherwise have had to be reduced due to mucositis", "setting": "[1]; with the addition of glutamine", "value": "8/10"},
      {"measurement": "patients who felt that the mucositis was less severe", "setting": "[1]; with the addition of glutamine", "value": "Nine of the 10"},
      {"measurement": "clinical toxicity or measurable toxic metabolites (ammonia or glutamate)", "setting": "[2]", "value": "no evidence of clinical toxicity or generation of measurable toxic metabolites"},
      {"measurement": "tolerability", "setting": "[3]", "value": "well tolerated"},
      {"measurement": "severity of oral mucositis (stomatitis)", "setting": "[4]; high dosage of intravenous glutamine vs no glutamine", "value": "no difference"},
      {"measurement": "episodes of clinical infections", "setting": "[4]; [8]", "value": "fewer episodes of clinical infections"},
      {"measurement": "median hospitalization", "setting": "[4]; [8]", "value": "shorter median hospitalization"},
      {"measurement": "nitrogen balance", "setting": "[4]; [8]", "value": "better nitrogen balance"},
      {"measurement": "incidence of bacteremia", "setting": "[5]", "value": "lower incidence of bacteremia"},
      {"measurement": "mortality", "setting": "[5]", "value": "less mortaility"},
      {"measurement": "mucosal weight of the jejunum and colon", "setting": "[5]", "value": "increased mucosal weight of the jejunum and colon"},
      {"measurement": "survival", "setting": "[5]", "value": "longer survival"},
      {"measurement": "weight loss", "setting": "[5]", "value": "less weight loss"},
      {"measurement": "mucosal structure", "setting": "[6]", "value": "more normal mucosal structure"},
      {"measurement": "survival rate", "setting": "[6]", "value": "higher survival rate"},
      {"measurement": "survival rate, enteral vs parenteral supplementation", "setting": "[7]", "value": "better survival rate"}
    ]}
  ]
}
